According to patent US20260035365A1, “1H-PYRROLO[3,2-B]PYRIDINE DERIVATIVES AS IRREVERSIBLE INHIBITORS OF MUTANT EGFR FOR THE TREATMENT OF CANCER” (Bayer Aktiengesellschaft, priority 2022, published 2026):
pIC50: −log10 of the molar value.

Key:
[1] = target: mutEGFR (D770_N771insSVD) (Homo sapiens, UniProt P00533, INS767SVD); assay: Exon20-mutant-EGFR (D770_N771insSVD) TR-FRET kinase assay; format: biochemical; conditions: 2 mM ATP, 15 min preincubation
Excerpt: Inhibitory activity of compounds of the present invention against an Epidermal Growth Factor Receptor (EGFR) with an insertion of the amino acids sequence SVD between D770 and N771 (SEQ ID No. 5) was quantified employing the TR-FRET based kinase activity assay as described in the following paragraphs.
A recombinant fusion protein of N-terminal Glutathion-S-Transferase (GST) and a fragment of human EGFR variant (amino acids R669 to A1210 with insertion of the amino acids sequence SVD between D770 and N771 (SEQ ID No. 5) (“EGFR ins SVD”), expressed in Sf9 insect cells and purified via affinity chromatography using Glutathion Sepharose as described above, was used as a kinase. As substrate for the kinase reaction the biotinylated peptide biotin-Ahx-AEEEEYFELVAKKK (C-terminus in amide form) (SEQ ID No. 6) was used which can be purchased e.g. form the company Biosynthan GmbH (Berlin-Buch, Germany).
For the assay 50 nl of a 100-fold concentrated solution of the test compound in DMSO was pipetted into either a black low volume 384 well microtiter plate or a black 1536 well microtiter plate (both Greiner Bio-One, Frickenhausen, Germany), 2 μl of a solution of EGFR in aqueous assay buffer [50 mM Hepes pH 7.0, 10 mM MgCl2, 1 mM dithiothreitol, 0.5 mM EGTA, 0.3 mM activated sodium ortho-vanadate, 0.005% (w/v) bovine serum albumin, 0.005% (v/v) Tween-20] were added and the mixture was incubated for 15 min at 22° C. to allow pre binding of the test compounds to the enzyme before the start of the kinase reaction. […] The concentration of EGFR was adjusted depending of the activity of the enzyme lot and was chosen appropriate to have the assay in the linear range, typical concentration was 15 pg/μl. The reaction was stopped by the addition of 3 μl of a solution of HTRF detection reagents (83.3 nM streptavidine-XL665 [Cisbio Bioassays, Codolet, France] and 1.67 nM PT66-Tb-Cryptate, a terbium-cryptate labelled anti-phospho-tyrosine antibody from Cisbio Bioassays [instead of the PT66 Tb cryptate PT66 Eu Chelate from Perkin Elmer can also be used]) in an aqueous EDTA-solution (133.3 mM EDTA, 0.2% (w/v) bovine serum albumin in 50 mM HEPES pH 7.5).
The resulting mixture was incubated 1 h at 22° C. to allow the binding of the biotinylated phosphorylated peptide to the streptavidine-XL665 and the PT66-Tb-Cryptate. Subsequently, the amount of phosphorylated substrate was evaluated by measurement of the resonance energy transfer from the PT66-Tb-Cryptate to the streptavidine-XL665. Therefore, the fluorescence emissions at 620 nm and 665 nm after excitation at 337 nm were measured in a HTRF reader, e.g. a Pherastar (BMG Labtechnologies, Offenburg, Germany) or a Viewlux (Perkin-Elmer). The ratio of the emissions at 665 nm and at […] was taken as the measure for the amount of phosphorylated substrate. The data were normalised (enzyme reaction without inhibitor=0% inhibition, all other assay components but no enzyme=100% inhibition).

[2] = target: mutEGFR (D770_N771insNPG, T790); assay: mutEGFR (D770_N771insNPG, T790) kinase assay; format: biochemical, human
[3] = tested on: BA/F3 (insSVD) cells; assay: Ba/F3 cell survival assay (Cell Titer-Glo), EGFR-insSVD; format: cell-based; conditions: Mus musculus, BaF3, 48 h, without IL-3, with EGF
Method: 293T cells from ATCC were transfected with pBABEpuro expression constructs for WT EGFR or EGFR-insSVD, or EGFR-insSVD T790M, and pCL-Eco packaging vector using Fugene-6 transfection reagent from Promega. Plates were incubated at 37° C. for 48 h. Retrovirus was harvested by filtering the media supernatant through a 0.45 μm filter.
Ba/F3 cells purchased from DSMZ were grown in RPMI+10% FBS+10 ng/mL IL-3 and infected with filtered retroviral supernatant at a 1:2 dilution. Polybrene was added to a concentration of 8 μg/mL, plates were spun for 90 min, and incubated for 16 h at 37° C. 2 μg/mL puromycin was added to the infected cells 24 h after infection and cells were continually grown in the presence of puromycin and 10 ng/mL IL-3. Following stably expressing Ba/F3 cell lines were generated: Ba/F3-EGFR-WT, Ba/F3-EGFR-insSVD, Ba/F3-EGFR-insSVD T790M, (Ba/F3-vector-control).
For cell survival assays, Ba/F3 cells were grown to a density of 1-2 million cells per mL, spun down and resuspended in media without IL-3, and replated at a concentration of 200,000-500,000 cells per mL. The cells ectopically expressing WT EGFR, EGFR-insSVD, or EGFR-insSVD T790M were plated with 10 ng/mL Millipore Culture grade EGF. The cells ectopically expressing pBABEpuro empty vector were plated with 10 ng/mL IL-3.
2 days later, cells were plated in 50 μL in a 384 well plate at a concentration of 4000 cells per well for cells assayed in the absence of IL-3 and 2000 cells per well for cells assayed in the presence of IL-3. 100 nL of compound was added to each well using a 100 nL pin head, and plates were incubated at 37° C. for 48 h.
Cell viability was measured by adding 20 μL of Cell Titer-Glo Luminescent Cell Viability Reagent diluted 1:3 in PBS. Plates were sealed with Perkin Elmer Top-Seal, inverted several times to mix, and immediately centrifuged at 1000 rpm for 2 min. Plates were incubated in low light conditions for 8-10 min and luminescence was measured.

mutEGFR (D770_N771insNPG, T790), sequence (P00533 with tags, fused parts or gaps INS770NPG limits assumed): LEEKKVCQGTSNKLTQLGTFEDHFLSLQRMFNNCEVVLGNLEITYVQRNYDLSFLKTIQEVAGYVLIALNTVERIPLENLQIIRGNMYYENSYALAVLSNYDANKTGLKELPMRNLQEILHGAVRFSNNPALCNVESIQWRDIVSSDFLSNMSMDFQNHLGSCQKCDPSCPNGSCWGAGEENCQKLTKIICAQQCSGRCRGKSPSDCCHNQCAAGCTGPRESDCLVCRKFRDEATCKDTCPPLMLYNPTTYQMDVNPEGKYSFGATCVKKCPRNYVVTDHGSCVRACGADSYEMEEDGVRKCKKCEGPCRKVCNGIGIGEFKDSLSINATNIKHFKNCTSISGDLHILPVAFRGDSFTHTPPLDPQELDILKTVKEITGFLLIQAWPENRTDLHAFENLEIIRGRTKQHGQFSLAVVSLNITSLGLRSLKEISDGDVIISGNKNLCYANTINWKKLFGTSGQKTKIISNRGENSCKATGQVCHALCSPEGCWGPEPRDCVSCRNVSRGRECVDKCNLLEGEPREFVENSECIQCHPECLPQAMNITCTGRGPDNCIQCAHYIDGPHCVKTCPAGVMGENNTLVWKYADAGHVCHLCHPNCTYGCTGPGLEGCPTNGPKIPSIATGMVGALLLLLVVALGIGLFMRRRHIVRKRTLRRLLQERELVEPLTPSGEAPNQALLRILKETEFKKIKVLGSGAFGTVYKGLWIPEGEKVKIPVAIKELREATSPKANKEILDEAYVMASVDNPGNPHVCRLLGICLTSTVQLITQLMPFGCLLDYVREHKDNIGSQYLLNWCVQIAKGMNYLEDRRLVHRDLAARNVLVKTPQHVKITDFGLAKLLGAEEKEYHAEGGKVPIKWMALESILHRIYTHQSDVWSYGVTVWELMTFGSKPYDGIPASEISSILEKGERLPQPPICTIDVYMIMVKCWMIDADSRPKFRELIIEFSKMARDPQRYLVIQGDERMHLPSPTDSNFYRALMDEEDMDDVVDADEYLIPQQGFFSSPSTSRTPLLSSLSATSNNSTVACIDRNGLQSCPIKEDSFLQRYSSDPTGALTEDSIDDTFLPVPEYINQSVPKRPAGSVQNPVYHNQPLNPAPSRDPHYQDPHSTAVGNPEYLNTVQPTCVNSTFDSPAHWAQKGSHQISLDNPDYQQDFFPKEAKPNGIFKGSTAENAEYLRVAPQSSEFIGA
mutEGFR (D770_N771insSVD), sequence (P00533 with tags, fused parts or gaps INS767SVD limits assumed): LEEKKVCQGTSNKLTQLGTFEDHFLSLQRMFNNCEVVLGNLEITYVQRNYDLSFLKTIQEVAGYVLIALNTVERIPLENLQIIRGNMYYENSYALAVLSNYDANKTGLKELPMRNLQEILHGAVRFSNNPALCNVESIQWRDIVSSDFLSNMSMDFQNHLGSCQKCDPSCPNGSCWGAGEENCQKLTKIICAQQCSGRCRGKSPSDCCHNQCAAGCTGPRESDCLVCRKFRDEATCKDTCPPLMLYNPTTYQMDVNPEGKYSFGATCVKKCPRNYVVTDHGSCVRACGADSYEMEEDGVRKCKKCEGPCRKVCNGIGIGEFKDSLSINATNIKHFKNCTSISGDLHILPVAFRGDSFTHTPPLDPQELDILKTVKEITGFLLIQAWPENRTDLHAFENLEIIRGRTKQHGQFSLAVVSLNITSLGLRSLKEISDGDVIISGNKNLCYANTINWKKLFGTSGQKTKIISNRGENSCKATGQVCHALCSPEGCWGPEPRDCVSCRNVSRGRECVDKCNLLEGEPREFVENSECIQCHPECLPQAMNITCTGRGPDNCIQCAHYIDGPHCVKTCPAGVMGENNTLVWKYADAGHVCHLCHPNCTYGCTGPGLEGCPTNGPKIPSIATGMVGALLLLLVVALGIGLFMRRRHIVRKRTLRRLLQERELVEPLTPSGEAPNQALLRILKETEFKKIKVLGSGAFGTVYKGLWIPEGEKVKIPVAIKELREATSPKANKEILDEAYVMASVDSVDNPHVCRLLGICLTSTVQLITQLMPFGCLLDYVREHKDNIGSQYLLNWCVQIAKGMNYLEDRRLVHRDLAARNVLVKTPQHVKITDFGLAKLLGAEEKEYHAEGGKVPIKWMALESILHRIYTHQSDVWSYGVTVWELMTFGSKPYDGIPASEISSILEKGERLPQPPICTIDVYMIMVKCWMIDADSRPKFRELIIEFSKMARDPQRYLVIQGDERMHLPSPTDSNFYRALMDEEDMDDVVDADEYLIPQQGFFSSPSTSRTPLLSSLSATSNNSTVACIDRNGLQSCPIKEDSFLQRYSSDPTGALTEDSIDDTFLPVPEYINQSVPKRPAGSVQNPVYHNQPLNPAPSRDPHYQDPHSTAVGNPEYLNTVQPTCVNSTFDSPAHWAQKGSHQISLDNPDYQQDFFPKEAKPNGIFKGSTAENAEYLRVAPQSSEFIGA

C=CS(=O)(=O)N1CC[C@H]1COc1cnccc1-c1[nH]c2cccnc2c1-c1ccccc1 (single isomer, unassigned) [Example 141]
pIC50 [1]: 9.22
pIC50 [2]: 8.66
pIC50 [3]: 6.64

C=CS(=O)(=O)N1CC[C@@H]1COc1cnccc1-c1[nH]c2cccnc2c1-c1ccccc1 (single isomer, unassigned) [Example 142]
pIC50 [1]: > 10.14
pIC50 [2]: 9.58
pIC50 [3]: 7.80

C=CC(=O)N1CC[C@H]1COc1cnccc1-c1[nH]c2cccnc2c1-c1cccc(C(F)(F)F)c1 (single isomer, unassigned) [Example 143]
pIC50 [1]: 6.89
pIC50 [2]: 6.17
pIC50 [3]: 5.42

C=CS(=O)(=O)N1CC[C@H]1COc1cnccc1-c1[nH]c2cccnc2c1-c1cccc(C(F)(F)F)c1 (single isomer, unassigned) [Example 144]
pIC50 [1]: 8.29
pIC50 [2]: 7.72
pIC50 [3]: 5.82

C=CC(=O)N(C)C[C@H](C)Oc1cnccc1-c1[nH]c2cccnc2c1-c1ccccc1 (stereo in doubt) [Example 133, N-methyl-N-[2-{[4-(3-phenyl-1H-pyrrolo[3,2-b]pyridin-2-yl)pyridin-3-yl]oxy}propyl]prop-2-enamide]
pIC50 [1]: 5.46
pIC50 [2]: 5.25
pIC50 [3]: 5.05

C=CS(=O)(=O)N(C)C[C@H](C)Oc1cnccc1-c1[nH]c2cccnc2c1-c1ccccc1 (stereo in doubt) [Example 134, N-methyl-N—[-2-{[4-(3-phenyl-1H-pyrrolo[3,2-b]pyridin-2-yl)pyridin-3-yl]oxy}propyl]ethenesulfonamide]
pIC50 [1]: 7.66
pIC50 [2]: 7.00
pIC50 [3]: 6.21

C=CC(=O)N(C)CCOc1cnccc1-c1[nH]c2cccnc2c1-c1ccc2cc[nH]c2c1 [Example 16, N-[2-({4-[3-(1H-indol-6-yl)-1H-pyrrolo[3,2-b]pyridin-2-yl]pyridin-3-yl}oxy)ethyl]-N-methylprop-2-enamide]
pIC50 [1]: 8.12
pIC50 [2]: 7.49
pIC50 [3]: 6.23

C=CC(=O)N(C)CCOc1cnccc1-c1[nH]c2cccnc2c1-c1cc(Cl)ccc1F [Example 43, N-[2-({4-[3-(5-chloro-2-fluorophenyl)-1H-pyrrolo[3,2-b]pyridin-2-yl]pyridin-3-yl}oxy)ethyl]-N-methylprop-2-enamide]
pIC50 [1]: 7.93
pIC50 [2]: 7.48
pIC50 [3]: 6.27

C=CC(=O)N(C)CCOc1cnccc1-c1[nH]c2cccnc2c1-c1ccc2ccsc2c1 [Example 44, N-[2-({4-[3-(1-benzothiophen-6-yl)-1H-pyrrolo[3,2-b]pyridin-2-yl]pyridin-3-yl}oxy)ethyl]-N-methylprop-2-enamide]
pIC50 [1]: 7.68
pIC50 [2]: 7.19
pIC50 [3]: 6.00

C=CC(=O)N(C)CCOc1cnccc1-c1[nH]c2cccnc2c1-c1cccc(CC)c1 [Example 45, N-[2-({4-[3-(3-ethylphenyl)-1H-pyrrolo[3,2-b]pyridin-2-yl]pyridin-3-yl}oxy)ethyl]-N-methylprop-2-enamide]
pIC50 [1]: 7.61
pIC50 [2]: 7.12
pIC50 [3]: 5.89

C=CC(=O)N(C)CCOc1cnccc1-c1[nH]c2cccnc2c1-c1cc(F)ccc1F [Example 46, N-[2-({4-[3-(2,5-difluorophenyl)-1H-pyrrolo[3,2-b]pyridin-2-yl]pyridin-3-yl}oxy)ethyl]-N-methylprop-2-enamide]
pIC50 [1]: 7.56
pIC50 [2]: 7.22
pIC50 [3]: 5.94

C=CC(=O)N(C)CCOc1cnccc1-c1[nH]c2cccnc2c1-c1cc(C)ccc1F [Example 47, N-[2-({4-[3-(2-fluoro-5-methylphenyl)-1H-pyrrolo[3,2-b]pyridin-2-yl]pyridin-3-yl}oxy)ethyl]-N-methylprop-2-enamide]
pIC50 [1]: 7.48
pIC50 [2]: 7.71
pIC50 [3]: 6.31

C=CC(=O)N(C)CCOc1cnccc1-c1[nH]c2cccnc2c1-c1cc(CC)ccc1F [Example 48, N-[2-({4-[3-(5-ethyl-2-fluorophenyl)-1H-pyrrolo[3,2-b]pyridin-2-yl]pyridin-3-yl}oxy)ethyl]-N-methylprop-2-enamide]
pIC50 [1]: 7.43
pIC50 [2]: 6.96
pIC50 [3]: 6.02

C=CC(=O)N(C)CCOc1cnccc1-c1[nH]c2cccnc2c1-c1cccc(C(F)(F)F)c1 [Example 49, N-methyl-N-{2-[(4-{3-[3-(trifluoromethyl)phenyl]-1H-pyrrolo[3,2-b]pyridin-2-yl}pyridin-3-yl)oxy]ethyl}prop-2-enamide]
pIC50 [1]: 7.24
pIC50 [2]: 6.82
pIC50 [3]: 5.71

C=CC(=O)N(C)CCOc1cnccc1-c1[nH]c2cccnc2c1-c1cc(C)cc(F)c1 [Example 50, N-[2-({4-[3-(3-fluoro-5-methylphenyl)-1H-pyrrolo[3,2-b]pyridin-2-yl]pyridin-3-yl}oxy)ethyl]-N-methylprop-2-enamide]
pIC50 [1]: 7.20
pIC50 [2]: 6.88
pIC50 [3]: 5.75

C=CC(=O)N(C)CCOc1cnccc1-c1[nH]c2cccnc2c1-c1cc(C(F)(F)F)ccc1F [Example 51, N-{2-[(4-{3-[2-fluoro-5-(trifluoromethyl)phenyl]-1H-pyrrolo[3,2-b]pyridin-2-yl}pyridin-3-yl)oxy]ethyl}-N-methylprop-2-enamide]
pIC50 [1]: 7.12
pIC50 [2]: 6.88
pIC50 [3]: 5.72

C=CC(=O)N(C)CCOc1cnccc1-c1[nH]c2cccnc2c1-c1cc(F)cc(F)c1 [Example 52, N-[2-({4-[3-(3,5-difluorophenyl)-1H-pyrrolo[3,2-b]pyridin-2-yl]pyridin-3-yl}oxy)ethyl]-N-methylprop-2-enamide]
pIC50 [1]: 7.11
pIC50 [2]: 6.69
pIC50 [3]: 5.51

C=CC(=O)N(C)CCOc1cnccc1-c1[nH]c2cccnc2c1-c1ccccc1CC [Example 53, N-[2-({4-[3-(2-ethylphenyl)-1H-pyrrolo[3,2-b]pyridin-2-yl]pyridin-3-yl}oxy)ethyl]-N-methylprop-2-enamide]
pIC50 [1]: 6.95
pIC50 [2]: 6.13
pIC50 [3]: 5.49

C=CC(=O)N(C)CCOc1cnccc1-c1[nH]c2cccnc2c1-c1cccc(OC)c1 [Example 54, N-[2-({4-[3-(3-methoxyphenyl)-1H-pyrrolo[3,2-b]pyridin-2-yl]pyridin-3-yl}oxy)ethyl]-N-methylprop-2-enamide]
pIC50 [1]: 6.93
pIC50 [2]: 6.62
pIC50 [3]: 5.40

C=CC(=O)N(C)CCOc1cnccc1-c1[nH]c2cccnc2c1-c1cccc(C(C)C)c1 [Example 55, N-methyl-N-{2-[(4-{3-[3-(propan-2-yl)phenyl]-1H-pyrrolo[3,2-b]pyridin-2-yl}pyridin-3-yl)oxy]ethyl}prop-2-enamide]
pIC50 [1]: 6.93
pIC50 [2]: 6.22
pIC50 [3]: 5.52
